Like-named read-outs stand apart in the source and are kept apart here.

The text below walks through data of US6235754A, “Methods and compositions for protecting animals and humans against attack and infestation by arthropod and helminth parasites” (American Cyanamid Company, priority 1999, dated 2001).

For this test, the system named is Ctenocephalides felis (cat flea). Nature of the test: Contact activity against the adult cat flea (Table I). Format: in vivo. To be noted: topical. The method, then:
This test is designed to evaluate the contact activity of test compounds against the adult cat flea. Test compounds are dissolved in 100% acetone to 300, 100, 10 and 1 ppm. 100 μL of each of these dilutions is added to the bottom of a 20 mL glass scintillation vial with a pipettor. The vial is allowed to dry under a fume hood for 15 minutes. The bottom of the vial measures 4.909 cm^2. The amount of test compound applied by each dilution equals 6.2, 2.0, 0.2 and 0.02 μg/cm^2, respectively. Newly emerged adult cat fleas are anesthetized with CO2 to immobilize, and are counted into the scintillation vials with forceps. Five fleas are placed in each vial. These tests are done in replicates of two or three so that there are 10 to 15 fleas per rate/compound. Mortality readings are taken 4 and 24 hours after placing the fleas in the vials. […] Percent mortality is then calculated for each treatment.

Setting [1] is: 4 h, read-out: 4 Hour % Mortality.
The mark [2] stands for this setting: 24 h, read-out: 24 Hour % Mortality.

Regarding `CCOc1ccc(C(/C(F)=C/Cc2cccc(Oc3ccccc3)c2)C2CC2)cc1` (racemic) [Compound 14, 1-[1-(p-Ethoxyphenyl)-2-fluoro-4-(m-phenoxyphenyl)-2-butenyl]cyclopropane, (R,S)-(Z)-], under setting [1], the mortality at 0.02 µg/cm2 came to 10%, the mortality at 0.2 µg/cm2 amounted to 20%, the mortality at 2 µg/cm2 was determined as 20% and the mortality at 6.2 µg/cm2 turned out to be 50%. Also, under setting [2], the mortality at 0.02 µg/cm2 is 30%, the mortality at 0.2 µg/cm2 is 60%, the mortality at 2 µg/cm2 was 100% and the mortality at 6.2 µg/cm2 is 100%.
`F/C(=C\Cc1cccc(Oc2ccccc2)c1)C(c1ccc(F)cc1)C1CC1` (racemic) [Compound 15, 1-[2-Fluoro-1-(p-fluorophenyl)-4-(m-phenoxyphenyl)-2-butenyl]cyclopropane, (R,S)-(Z)-]: under setting [1], the mortality at 0.2 µg/cm2 was 44%, the mortality at 2 µg/cm2 stood at 80% and the mortality at 6.2 µg/cm2 is 100%. Moreover, under setting [2], the mortality at 0.2 µg/cm2 worked out at 78%, the mortality at 2 µg/cm2 was determined as 100% and the mortality at 6.2 µg/cm2 worked out at 100%.
Turning to `CCOc1ccc(C(/C(F)=C/Cc2ccc(F)c(Oc3ccc(F)cc3)c2)C2CC2)cc1` (racemic) [Compound 16, 1-{1-(p-Ethoxyphenyl)-2-fluoro-4-[4-fluoro-3-(p-fluorophenoxy)phenyl]-2-butenyl}cyclopropane, (R,S)-(Z)-], under setting [1], the mortality at 0.02 µg/cm2 was determined as 0%, the mortality at 0.2 µg/cm2 stood at 20%, the mortality at 2 µg/cm2 came out at 71% and the mortality at 6.2 µg/cm2 came to 100%. Besides, under setting [2], the mortality at 0.02 µg/cm2 came to 60%, the mortality at 0.2 µg/cm2 worked out at 50%, the mortality at 2 µg/cm2 amounted to 100% and the mortality at 6.2 µg/cm2 came out at 100%.
Turning to `CC(C)(C(F)=CCc1cccc(Oc2ccccc2)c1)c1ccc(Cl)cc1` [Compound 1, 4-(p-Chlorophenyl)-3-fluoro-4-methyl-1-(m-phenoxyphenyl)-2-pentene, (Z)- and (E)-(95:5)], under setting [1], the mortality at 0.02 µg/cm2 came to 5%, the mortality at 0.2 µg/cm2 was 5%, the mortality at 2 µg/cm2 stood at 10% and the mortality at 6.2 µg/cm2 turned out to be 0%. Moreover, under setting [2], the mortality at 0.02 µg/cm2 was 10%, the mortality at 0.2 µg/cm2 was 20%, the mortality at 2 µg/cm2 came to 35% and the mortality at 6.2 µg/cm2 turned out to be 53%.
Turning to `CC(C)(/C(F)=C/Cc1ccc(F)c(Oc2ccccc2)c1)c1ccc(Cl)cc1` [Compound 2, 4-(p-Chlorophenyl)-3-fluoro-1-(4-fluoro-3-phenoxyphenyl)-4-methyl-2-pentene, (Z)-], under setting [1], the mortality at 0.02 µg/cm2 worked out at 5%, the mortality at 0.2 µg/cm2 was 0%, the mortality at 2 µg/cm2 was found to be 0% and the mortality at 6.2 µg/cm2 stood at 22%. Besides, under setting [2], the mortality at 0.02 µg/cm2 was determined as 10%, the mortality at 0.2 µg/cm2 worked out at 32%, the mortality at 2 µg/cm2 came out at 58% and the mortality at 6.2 µg/cm2 came to 100%.
In the case of `F/C(=C\Cc1cccc(Oc2ccccc2)c1)C1(c2ccc(Cl)cc2)CC1` [Compound 3, 1-(p-Chlorophenyl)-1-[1-fluoro-3-(m-phenoxyphenyl)propenyl]cyclopropane, (Z)-], under setting [1], the mortality at 0.02 µg/cm2 came out at 5%, the mortality at 0.2 µg/cm2 amounted to 0%, the mortality at 2 µg/cm2 was found to be 7% and the mortality at 6.2 µg/cm2 is 0%. Further, under setting [2], the mortality at 0.02 µg/cm2 came out at 5%, the mortality at 0.2 µg/cm2 was found to be 7%, the mortality at 2 µg/cm2 came to 17% and the mortality at 6.2 µg/cm2 was 13%.
`F/C(=C\Cc1ccc(F)c(Oc2ccccc2)c1)C1(c2ccc(Cl)cc2)CC1` [Compound 4, 1-(p-Chlorophenyl)-1-[1-fluoro-3-(4-fluoro-3-phenoxyphenyl)propenyl]cyclopropane, (Z)-]: under setting [1], the mortality at 0.02 µg/cm2 was 5%, the mortality at 0.2 µg/cm2 turned out to be 7%, the mortality at 2 µg/cm2 was 0% and the mortality at 6.2 µg/cm2 turned out to be 3%. For the same compound, under setting [2], the mortality at 0.02 µg/cm2 worked out at 16%, the mortality at 0.2 µg/cm2 worked out at 14%, the mortality at 2 µg/cm2 was determined as 21% and the mortality at 6.2 µg/cm2 stood at 28%.
Take `F/C(=C\Cc1cccc(Oc2ccccc2)c1)C(c1ccc(Cl)cc1)C1CC1` (stereo not shown) [Compound 6, 1-[1-(p-Chlorophenyl)-2-fluoro-4-(m-phenoxyphenyl)-2-butenyl]cyclopropane, (Z)-]: under setting [1], the mortality at 0.02 µg/cm2 was determined as 0%, the mortality at 0.2 µg/cm2 was 0%, the mortality at 2 µg/cm2 turned out to be 56% and the mortality at 6.2 µg/cm2 was 80%. Also, under setting [2], the mortality at 0.02 µg/cm2 came to 8%, the mortality at 0.2 µg/cm2 was determined as 28%, the mortality at 2 µg/cm2 was determined as 88% and the mortality at 6.2 µg/cm2 was 100%.
For the compound `CC(C)C(/C(F)=C/Cc1ccc(F)c(Oc2ccccc2)c1)c1ccc(Cl)cc1` (stereo not shown) [Compound 7, 4-(p-Chlorophenyl)-3-fluoro-1-(4-fluoro-3-phenoxyphenyl)-5-methyl-2-hexene, (Z)-], under setting [1], the mortality at 0.02 µg/cm2 amounted to 0%, the mortality at 0.2 µg/cm2 was 0%, the mortality at 2 µg/cm2 was 0% and the mortality at 6.2 µg/cm2 was 0%. Under setting [2], the mortality at 0.02 µg/cm2 stood at 10%, the mortality at 0.2 µg/cm2 was determined as 0%, the mortality at 2 µg/cm2 amounted to 0% and the mortality at 6.2 µg/cm2 was 100%.
`CC(C)C(/C(F)=C/Cc1cccc(Oc2ccccc2)c1)c1ccc(Cl)cc1` (stereo not shown) [Compound 8, 4-(p-Chlorophenyl)-3-fluoro-5-methyl-1-(m-phenoxyphenyl)-2-hexene, (Z)-]: under setting [1], the mortality at 0.02 µg/cm2 came to 0%, the mortality at 0.2 µg/cm2 turned out to be 0%, the mortality at 2 µg/cm2 was found to be 0% and the mortality at 6.2 µg/cm2 was determined as 0%. Besides, under setting [2], the mortality at 0.02 µg/cm2 came to 10%, the mortality at 0.2 µg/cm2 was found to be 0%, the mortality at 2 µg/cm2 stood at 0% and the mortality at 6.2 µg/cm2 was found to be 20%.
Regarding `CC(C)(C)C(/C(F)=C/Cc1cccc(Oc2ccccc2)c1)c1ccc(Cl)cc1` (stereo not shown) [Compound 9, 4-(p-Chlorophenyl)-3-fluoro-5-methyl-1-(m-phenoxyphenyl)-5-methyl-2-hexene, (Z)-], under setting [1], the mortality at 0.02 µg/cm2 is 0%, the mortality at 0.2 µg/cm2 is 0%, the mortality at 2 µg/cm2 was found to be 30% and the mortality at 6.2 µg/cm2 was 20%. Moreover, under setting [2], the mortality at 0.02 µg/cm2 amounted to 40%, the mortality at 0.2 µg/cm2 was determined as 70%, the mortality at 2 µg/cm2 was 70% and the mortality at 6.2 µg/cm2 is 80%.
For `CCOc1ccc(C(/C(F)=C/Cc2cccc(Oc3ccccc3)c2)C(C)C)cc1` (stereo not shown) [Compound 11, 4-(p-Ethoxyphenyl)-3-fluoro-5-methyl-1-(m-phenoxyphenyl)-2-hexene, (Z)-], under setting [1], the mortality at 0.02 µg/cm2 was 0%, the mortality at 0.2 µg/cm2 was 10%, the mortality at 2 µg/cm2 was found to be 30% and the mortality at 6.2 µg/cm2 came to 60%. In addition, under setting [2], the mortality at 0.02 µg/cm2 was found to be 10%, the mortality at 0.2 µg/cm2 amounted to 40%, the mortality at 2 µg/cm2 was determined as 90% and the mortality at 6.2 µg/cm2 came to 90%.
In the case of `CCOc1ccc(C(/C(F)=C/Cc2cccc(Oc3ccc(F)cc3)c2)C(C)C)cc1` (stereo not shown) [Compound 12, 4-(p-Ethoxyphenyl)-3-fluoro-1-[m-(p-fluorophenoxy)phenyl]-5-methyl-2-hexene, (Z)-], under setting [1], the mortality at 0.02 µg/cm2 came out at 0%, the mortality at 0.2 µg/cm2 was 0%, the mortality at 2 µg/cm2 is 10% and the mortality at 6.2 µg/cm2 was determined as 33%. In addition, under setting [2], the mortality at 0.02 µg/cm2 is 0%, the mortality at 0.2 µg/cm2 is 10%, the mortality at 2 µg/cm2 turned out to be 30% and the mortality at 6.2 µg/cm2 worked out at 78%.
For the compound `F/C(=C\Cc1cccc(Oc2ccc(F)cc2)c1)C(c1ccc(Cl)cc1)C1CC1` (stereo not shown) [Compound 13, 1-{1-(p-Chlorophenyl)-2-fluoro-4-[m-(p-fluorophenoxy)phenyl]-2-butenyl}cyclopropane, (Z)-], under setting [1], the mortality at 0.02 µg/cm2 amounted to 0%, the mortality at 0.2 µg/cm2 is 0%, the mortality at 2 µg/cm2 was 5% and the mortality at 6.2 µg/cm2 turned out to be 10%. Besides, under setting [2], the mortality at 0.02 µg/cm2 amounted to 5%, the mortality at 0.2 µg/cm2 is 33%, the mortality at 2 µg/cm2 came out at 67% and the mortality at 6.2 µg/cm2 worked out at 95%.
In the case of `CC(C)C(/C(F)=C(\F)Cc1ccc(F)c(Oc2ccccc2)c1)c1ccc(OC(F)(F)F)cc1` (stereo not shown) [Compound 17, 2,3-Difluoro-1-(4-fluoro-3-phenoxyphenyl)-5-methyl-4-[p-(trifluoromethoxy)phenyl]-2-hexene, (E)-], under setting [1], the mortality at 0.02 µg/cm2 was 0%, the mortality at 0.2 µg/cm2 came out at 10%, the mortality at 2 µg/cm2 was found to be 10% and the mortality at 6.2 µg/cm2 was found to be 10%. In addition, under setting [2], the mortality at 0.02 µg/cm2 stood at 20%, the mortality at 0.2 µg/cm2 was 40%, the mortality at 2 µg/cm2 came to 50% and the mortality at 6.2 µg/cm2 is 90%.

Usually mortality stands for the percentage killed.
